The source of these data is US8536160B2, “Azaheterocyclyl derivatives of androstanes and androstenes as medicaments for cardiovascular disorders” (priority 2006, dated 2013).

Data set [1] addresses Dog Kidney Na+, K+-ATPase (Canis lupus familiaris, UniProt P50997). In words: Inhibition of the enzymatic activity of purified Na+,K+-ATPase (hydrolysis of 32P-ATP). The format is biochemical.
Data set [2] relates to anesthetized guinea-pig. The data set is described as follows: Inotropic effect and lethal dose, slow intravenous infusion in anesthetized guinea-pig. The format is in vivo. Further details: Maximum dose infused: unit not given here. The note with it: for Emax / ED80 / ED (max): Cavia porcellus, iv, 1.5 h; for Emax: read-out: Emax % increase in +dP/dTmax; for ED80: read-out: ED80 (inotropic potency, dose increasing +dP/dTmax by 80%); for ED (max): read-out: EDmax (dose inducing maximum positive inotropic effect); for % decrease from Emax after 20 min from the end of the infusion: duration of the inotropic effect; for Maximum dose infused: maximum dose infused in the survived animals; for Lethal dose/ED80 (safety ratio): calculated for the died animals.

Data set [3] concerns fresh rat hepatocytes. The data set is described as follows: Metabolism in fresh rat hepatocytes. The settings on record: for % of compound metabolized after 60 minutes: test item nominal concentration 45 μM, 2590000-3084000 hepatocytes/ml.
The mark [4] stands for this setting: slow i.v. infusion over 90 minutes, anesthetized guinea-pig, maximum increase in contractile force.
Setting [5] is: slow i.v. infusion over 90 minutes, anesthetized guinea-pig.
The mark [6] stands for this setting: slow i.v. infusion over 90 minutes.
The mark [7] stands for this setting: dog kidney enzyme, hydrolysis of 32P-ATP in presence and absence of compound, read-out: Na+, K+-ATPase Inhibition IC50.
[8] abbreviates: read-out: Na+, K+-ATPase Inhibition IC50.

SMILES strings stand for the structures. Counter-ions that a name gives are not always drawn. Like-named read-outs stand apart in the source and are kept apart here.

The compound `C[C@]12CC[C@H]3[C@@H](CC[C@@]4(O)CC(=NO[C@@H]5CCNC5)CC[C@]34C)[C@@H]1CCC2=O` (mixture of isomers) [I-am, (E,Z) 3-(3-(R)-Pyrrolidinyl)oxyimino-5α-hydroxyandrostane-17-one hemifumarate] gave an IC50 in data set [1] (Na+, K+-ATPase Inhibition IC50) of 210 nM. Further, the Emax in data set [2] (setting [4]) came out at 221%. Also, in data set [2] (setting [5]), the ED80 was determined as 3.87 µmol/kg, the ED (max) was found to be 15.3 µmol/kg and the Dead/treated is reported as 0/3. For the same compound, the “% decrease from Emax after 20 min from the end of the infusion” value (“% decrease from Emax after 20 min” below) in data set [2] (anesthetized guinea-pig) stood at 100%. This compound also returned a Maximum dose infused in data set [2] (setting [6]) of 25.2. The “% of compound metabolized after 60 minutes” value (“% of compound metabolized” for short) in data set [3] is 12%.

As for `COC(=O)C1CC2C3CCC(=O)C3(C)CCC2C2(C)CCC(=NOC3CCNC3)CC12` (mixture of isomers) [I-au, (Z,E) 3-(3-(R)-Pyrrolidinyloxyimino)-6α-methoxycarbonylandrostane-17-one hydrochloride], the 50% inhibitory concentration (IC50) in data set [1] (setting [7]) came to 160 nM. Besides, the Emax in data set [2] (setting [4]) is 164%. Moreover, in data set [2] (setting [5]), the ED80 was found to be 11 µmol/kg, the ED (max) is 23.3 µmol/kg and the Dead/treated is recorded as 0/4. The “% decrease from Emax after 20 min” value in data set [2] (anesthetized guinea-pig) was 58%. This compound also yielded a Maximum dose infused in data set [2] (setting [6]) of 50.3.

Consider `CC12CCC3C(CC(=C(F)F)C4CC(=NOC5CCNC5)CCC43C)C1CCC2=O` (mixture of isomers) [I-az, (E,Z) 3-[3-(R)-Pyrrolidinyl]oxyimino-6-difluoromethyleneandrostan-17-one hydrochloride], for which half-maximal inhibition in data set [1] (Na+, K+-ATPase Inhibition IC50) (IC50) required 21 nM. In data set [2] (setting [4]), the Emax worked out at 244%. For the same compound, in data set [2] (setting [5]), the ED80 is 6.69 µmol/kg, the ED (max) came out at 18.4 µmol/kg and the Dead/treated is recorded as 0/3. Moreover, the “% decrease from Emax after 20 min” value in data set [2] (anesthetized guinea-pig) is given as 20%. Also, the Maximum dose infused in data set [2] (setting [6]) stood at 25.2.

Regarding `C#CC1CC2C3CCC(=O)C3(C)CCC2C2(C)CCC(=NOC3CCNC3)CC12` (mixture of isomers) [I-bb, (E,Z) 3-[3′-(R)-Pyrrolidinyl]oxyimino-6α-ethynylandrostane-17-one hydrochloride], in data set [1] (Na+, K+-ATPase Inhibition IC50), it took 110 nM to reach half-maximal inhibition (IC50). Further, the Emax in data set [2] (setting [4]) worked out at 147%. Moreover, in data set [2] (setting [5]), the ED80 stood at 3.7 µmol/kg, the ED (max) stood at 6.39 µmol/kg and the Dead/treated is recorded as 0/3. In addition, the “% decrease from Emax after 20 min” value in data set [2] (anesthetized guinea-pig) was 29%. The Maximum dose infused in data set [2] (setting [6]) was determined as 6.5.

On to `CC12CCC3C(CC(CCO)C4CC(=NOC5CCNC5)CCC43C)C1CCC2=O` (mixture of isomers) [I-bc, (E,Z) 3-[3′-(R)-Pyrrolidinyl]oxyimino-6α-(2-hydroxyethyl)androstane-17-one hydrochloride], for which, in data set [1] (setting [7]), the IC50 was 58 nM. Besides, the Emax in data set [2] (setting [4]) amounted to 183%. Also, in data set [2] (setting [5]), the ED80 was determined as 1.89 µmol/kg, the ED (max) was 5.08 µmol/kg and the Dead/treated is reported as 0/3. The “% decrease from Emax after 20 min” value in data set [2] (anesthetized guinea-pig) was determined as 28%. This compound also displayed a Maximum dose infused in data set [2] (setting [6]) of 6.3.

Turning to `C=C1C[C@H]2[C@@H]3CCC(=O)[C@@]3(C)CC[C@@H]2[C@@]2(C)CCC(=NO[C@@H]3CCNC3)C[C@]12O` (mixture of isomers) [I-bh, (E,Z) 3-[3′-(R)-Pyrrolidinyl]oxyimino-5α-hydroxy-6-methylenandrostane-17-one hydrochloride], in data set [1] (Na+, K+-ATPase Inhibition IC50), half-maximal inhibition (IC50) required 12 nM. Besides, in data set [2] (setting [4]), the Emax worked out at 173%. Further, in data set [2] (setting [5]), the ED80 came to 1.91 µmol/kg, the ED (max) is 3.8 µmol/kg and the Dead/treated is listed as 0/3. In addition, in data set [2] (anesthetized guinea-pig), the “% decrease from Emax after 20 min” value was determined as 63%. Also, the Maximum dose infused in data set [2] (setting [6]) was found to be 6.4.

Regarding `C[C@]12CC[C@H]3[C@@H](C/C(=N\O)[C@@]4(O)CC(=NO[C@@H]5CCNC5)CC[C@]34C)[C@@H]1CCC2=O` (mixture of isomers) [I-bp, (E,Z) 3-[3-(R)-Pyrrolidinyl]oxyimino-5α-hydroxy-6-(E)-hydroxyiminoandrostane-17-one hydrochloride], in data set [2] (setting [4]), the Emax is 226%. Besides, in data set [2] (setting [5]), the ED80 is 0.37 µmol/kg and the ED (max) came out at 1.8 µmol/kg. Besides, the “% decrease from Emax after 20 min” value in data set [2] (anesthetized guinea-pig) is on record as 100%. For the same compound, the Maximum dose infused in data set [2] (setting [6]) stood at 4.3. The “% of compound metabolized” value in data set [3] came to 8%.

As to `CC12CCC3C(C(O)CC4CC(=NOC5CCNC5)CCC43C)C1CCC2=O` (mixture of isomers) [I-cj, (E,Z) 3-[3′-(R)-Pyrrolidinyl]oxyimino-7α-hydroxyandrostane-17-one fumarate], the IC50 in data set [1] (Na+, K+-ATPase Inhibition IC50) was found to be 220 nM. In data set [3], the “% of compound metabolized” value is 20%.

Compound `CC1CC2CC(=NOC3CCNC3)CCC2(C)C2CCC3(C)C(=O)CCC3C12` (mixture of isomers) [I-cl, (E,Z) 3-[3′-(R)-Pyrrolidinyl]oxyimino-7β-methylandrostane-17-one hydrochloride] gave a half-maximal inhibitory concentration (IC50) in data set [1] (Na+, K+-ATPase Inhibition IC50) of 150 nM. In data set [2] (setting [4]), the Emax stood at 187%. Moreover, in data set [2] (setting [5]), the ED80 was 3.34 µmol/kg, the ED (max) turned out to be 6.34 µmol/kg and the Dead/treated is on record as 0/3. The “% decrease from Emax after 20 min” value in data set [2] (anesthetized guinea-pig) was determined as 7%. Besides, the Maximum dose infused in data set [2] (setting [6]) stood at 6.4.

`CC12CCC3C(C(=O)C(CO)C4CC(=NOC5CCNC5)CCC43C)C1CCC2=O` (mixture of isomers) [I-cs, (E,Z) 3-[3′-(R)-Pyrrolidinyl]oxyimino-6α-hydroxymethylandrostane-7,17-dione fumarate] registered an IC50 in data set [1] (Na+, K+-ATPase Inhibition IC50, dog kidney enzyme, hydrolysis of 32P-ATP in presence and absence of compound) of 13 nM. Also, in data set [3], the “% of compound metabolized” value is 5%.

For the compound `C[C@]12CCC(=NOCCN)CC1C(=O)C[C@@H]1[C@@H]2CC[C@]2(C)C(=O)CC[C@@H]12.Cl` (mixture of isomers) [compd 22b, (EZ) 3-(2-aminoethoxyimino)androstane-6,17-dione hydrochloride, reference compound], the Emax in data set [2] (setting [4]) worked out at 182%. In data set [2] (setting [5]), the ED80 was determined as 1.82 µmol/kg, the ED (max) came to 5.74 µmol/kg and the Dead/treated is reported as 7/8. In addition, in data set [2] (anesthetized guinea-pig), the “Lethal dose/ED80 (safety ratio)” value is listed as 22.6 and the “% decrease from Emax after 20 min” value was 100%. Further, the Maximum dose infused in data set [2] (setting [6]) came to 32.1. Moreover, the “metabolism in fresh rat hepatocytes within 60 minutes (in words)” value in data set [3] (45 μM) is recorded as “almost completely metabolized”. The “% of compound metabolized” value in data set [3] was 95%.

For the compound `CC12CCC3C(CC(O)C4CC(=NOC5CCNC5)CCC43C)C1CCC2=O` (single isomer, unassigned) [I-an, hydrochloride], the half-maximal inhibitory concentration (IC50) in data set [1] (Na+, K+-ATPase Inhibition IC50) came out at 580 nM. For the same compound, in data set [3], the “% of compound metabolized” value stood at 21%.

In the case of `CON=C1CC2C3CCC(=O)C3(C)CCC2C2(C)CCC(=NOC3CCNC3)CC12` (single isomer, unassigned) [I-be], the IC50 in data set [1] (Na+, K+-ATPase Inhibition IC50) stood at 260 nM. In addition, the “% of compound metabolized” value in data set [3] was determined as 42%.

Consider `CON=C1CC2C3CCC(=O)C3(C)CCC2C2(C)CCC(=NOC3CCNC3)CC12O` (single isomer, unassigned) [I-bw], for which the half-maximal inhibitory concentration (IC50) in data set [1] (setting [7]) was 39 nM. Also, the “% of compound metabolized” value in data set [3] was found to be 24%.

`CC12CCC3C(C(O)C(CO)C4CC(=NOC5CCNC5)CCC43C)C1CCC2=O` (single isomer, unassigned) [I-dk, hydrochloride]: the IC50 in data set [1] (Na+, K+-ATPase Inhibition IC50) came out at 5.8 nM. For the same compound, the “% of compound metabolized” value in data set [3] turned out to be 5%.

Compound `CC12CCC3C(CC(O)C4CC(=NOC5CCNC5)CCC43C)C1CCC2=O` (single isomer, unassigned) [I-dp, hydrochloride] gave an IC50 in data set [1] (Na+, K+-ATPase Inhibition IC50) of 1200 nM. In addition, the Emax in data set [2] (setting [4]) amounted to 358%. Moreover, in data set [2] (setting [5]), the ED80 was determined as 3.92 µmol/kg, the ED (max) is 43.6 µmol/kg and the Dead/treated is 2/2. Moreover, the “Lethal dose/ED80 (safety ratio)” value in data set [2] (anesthetized guinea-pig) is listed as 49. The Maximum dose infused in data set [2] (setting [6]) was found to be 148.

On to `C[C@]12CCC(=NO[C@@H]3CCNC3)C[C@@H]1[C@@H](C(N)=O)C[C@@H]1[C@@H]2CC[C@]2(C)C(=O)CC[C@@H]12.Cl` [I-at, (Z,E) 3-(3-(R)-Pyrrolidinyloxyimino)-6α-carbamoylandrostane-17-one hydrochloride], for which the IC50 in data set [1] (setting [8]) turned out to be 140 nM. Further, in data set [2] (anesthetized guinea-pig), the “% decrease from Emax after 20 min” value turned out to be 16%. For the same compound, in data set [2] (setting [5]), the Dead/treated is on record as 0/4; the “ED80 (inotropic potency, dose increasing +dP/dTmax by 80%)” value is 2.21 µmol/kg; the “EDmax (dose inducing maximum positive inotropic effect)” value came out at 8.82 µmol/kg. Also, the “Emax % increase in +dP/dTmax” value in data set [2] (setting [4]) is 109%. The Maximum dose infused in data set [2] (setting [6]) came to 25.0.

`C=C1CC2C/C(=N/O[C@@H]3CCNC3)CC[C@]2(C)[C@H]2CC[C@]3(C)C(=O)CC[C@H]3[C@H]12.Cl` (stereo partly drawn) [I-cg, (E,Z) 3-[3′-(R)-Pyrrolidinyl]oxyimino-7-methyleneandrostane-17-one hydrochloride]: the IC50 in data set [1] (setting [8]) amounted to 240 nM. Besides, the “% of compound metabolized” value in data set [3] came out at 28%.
